# Data taken from patent publication US11285127B2, “Compositions and methods for lowering triglycerides without raising LDL-C levels in a subject on concomitant statin therapy” (Amarin Pharmaceuticals Ireland Limited, priority 2013, dated 2022).
# Experiments:
# [1] = system: patients with fasting triglyceride levels >200 mg/dl and <500 mg/dl despite statin therapy; test: 12-week study: red blood cell fatty acids (EPA concentration, FADI ratios) by gas chromatography/flame ionization detection; type: in vivo, human; conditions: 4 g/day, placebo-adjusted, 12 weeks
# Description: (§1) A multi-center, placebo-controlled, randomized, double-blind, 12-week study was performed to evaluate the efficacy and safety of >96% E-EPA in patients with fasting triglyceride levels >200 mg/dl and <500 mg/dl despite statin therapy (the mean of two qualifying entry values needed to be >185 mg/dl and at least one of the values needed to be >200 mg/dl). The primary objective of the study was to determine the efficacy of >96% E-EPA 2 g daily and 4 g daily, compared to placebo, in lowering fasting TG levels in patients with high risk for cardiovascular disease and with fasting TG levels 200 mg/dl and <500 mg/dl, despite treatment to LDL-C goal on statin therapy. The secondary objectives of this study were the following: • 1. To determine the safety and tolerability of >96% E-EPA 2 g daily and 4 g daily; • 2. To determine the effect of >96% E-EPA on lipid and apolipoprotein profiles including total cholesterol (TC), non-high-density lipoprotein cholesterol (non-HDL-C), low density lipoprotein cholesterol (LDL-C), high density lipoprotein cholesterol (HDL-C), and […]; • 3. To determine the effect of >96% E-EPA on lipoprotein associated phospholipase A2 (Lp-PLA2) from baseline to week 12; • 4. To determine the effect of >96% E-EPA on low-density lipoprotein (LDL) particle number and size; • 5. […]
# [2] = system: patients with fasting triglyceride levels >200 mg/dl and <500 mg/dl despite statin therapy; test: 12-week study: plasma fatty acids (EPA concentration, FADI ratios) by gas chromatography/flame ionization detection; type: in vivo, human; conditions: 4 g/day, placebo-adjusted, 12 weeks
# Description: as §1
smiles,measurement,setting,value
"CC/C=C\C/C=C\C/C=C\C/C=C\C/C=C\CCCC(=O)OCC [AMR101, ethyl eicosapentaenoate]","FADI-16 (Palmitoleic acid/Palmitic acid, C16:1/C16:0), % Change, RBCs",[1],−15.7%
same,"FADI-18 (Oleic acid/Stearic Acid, C18:1/C18:0), % Change, RBCs",[1],−3.1%
same,"FADI-16 (Palmitoleic acid/Palmitic acid, C16:1/C16:0), % Change, Plasma",[2],−6.8%
same,"FADI-18 (Oleic acid/Stearic Acid, C18:1/C18:0), % Change, Plasma",[2],−9.8%
